From ChEMBL document CHEMBL1201862, “PubChem BioAssay data set” (2004)
The source made the active and inactive calls.

Tests used:
Major prion protein = Major prion protein (Homo sapiens, UniProt P04156); assay type: functional, cell-based
H4 = assay: Luminescence Cell-Based Dose Response HTS to Identify Activators of 5'UTR Stem-Loop Driven Prion Protein mRNA Translation in H4 Neuroglioblastoma Cells. [Related pubchem assays: 1829 (Project Summary), 1814 (Primary HTS)]; assay type: functional; details: Homo sapiens
[1] = Luminescence Cell-Based Dose Response HTS to Identify Activators of Luciferase Translation or Activity in H4 […] Cells. [Related pubchem assays: 1829 (Project Summary), 1814 (Primary HTS)]; assay type: functional
cells [2] = assay: cells
[3] = biological target: T1, Corticotropin-releasing factor receptor 2/Corticotropin-releasing factor-binding protein (Homo sapiens, UniProt P24387+Q13324); assay: activators of CRF receptor 2 with binding protein – uHTS hits, confirmation (AID 602473); assay type: functional; details: read-out: EC50_Mean
T1 sequence (Q13324 whole entry): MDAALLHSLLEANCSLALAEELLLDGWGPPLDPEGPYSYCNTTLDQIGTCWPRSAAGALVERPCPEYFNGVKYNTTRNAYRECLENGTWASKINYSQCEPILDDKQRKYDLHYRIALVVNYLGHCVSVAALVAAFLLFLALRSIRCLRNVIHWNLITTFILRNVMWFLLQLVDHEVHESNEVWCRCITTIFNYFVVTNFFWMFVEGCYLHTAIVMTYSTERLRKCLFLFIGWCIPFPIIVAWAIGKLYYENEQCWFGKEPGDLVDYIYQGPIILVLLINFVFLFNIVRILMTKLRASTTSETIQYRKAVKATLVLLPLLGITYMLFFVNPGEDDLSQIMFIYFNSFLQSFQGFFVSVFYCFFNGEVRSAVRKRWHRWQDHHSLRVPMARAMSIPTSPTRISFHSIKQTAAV
T1 sequence (P24387 whole entry): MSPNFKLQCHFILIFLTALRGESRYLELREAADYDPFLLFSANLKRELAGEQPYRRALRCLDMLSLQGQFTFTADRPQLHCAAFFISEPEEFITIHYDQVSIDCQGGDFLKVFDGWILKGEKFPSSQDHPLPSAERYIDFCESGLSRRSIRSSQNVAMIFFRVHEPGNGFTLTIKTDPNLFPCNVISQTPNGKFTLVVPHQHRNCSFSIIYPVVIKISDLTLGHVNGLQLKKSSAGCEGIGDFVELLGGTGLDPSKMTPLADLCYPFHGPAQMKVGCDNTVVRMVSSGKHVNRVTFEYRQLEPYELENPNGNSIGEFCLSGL

[4] = biological target: T1, Corticotropin-releasing factor receptor 2/Corticotropin-releasing factor-binding protein; assay: Dose Response confirmation of uHTS hits for small molecule antagonists of the CRF-binding protein and CRF-R2 receptor complex.; assay type: functional; details: read-out: IC50_Mean
[5] = biological target: T2, Sentrin-specific protease 1 (Homo sapiens, UniProt Q9P0U3); assay: potency of human SENP1 inhibitors, dose response, biochemical, kinetic FRET (AID 651697); assay type: functional; details: read-out: IC50_Mean
T2 sequence (Q9P0U3 whole entry): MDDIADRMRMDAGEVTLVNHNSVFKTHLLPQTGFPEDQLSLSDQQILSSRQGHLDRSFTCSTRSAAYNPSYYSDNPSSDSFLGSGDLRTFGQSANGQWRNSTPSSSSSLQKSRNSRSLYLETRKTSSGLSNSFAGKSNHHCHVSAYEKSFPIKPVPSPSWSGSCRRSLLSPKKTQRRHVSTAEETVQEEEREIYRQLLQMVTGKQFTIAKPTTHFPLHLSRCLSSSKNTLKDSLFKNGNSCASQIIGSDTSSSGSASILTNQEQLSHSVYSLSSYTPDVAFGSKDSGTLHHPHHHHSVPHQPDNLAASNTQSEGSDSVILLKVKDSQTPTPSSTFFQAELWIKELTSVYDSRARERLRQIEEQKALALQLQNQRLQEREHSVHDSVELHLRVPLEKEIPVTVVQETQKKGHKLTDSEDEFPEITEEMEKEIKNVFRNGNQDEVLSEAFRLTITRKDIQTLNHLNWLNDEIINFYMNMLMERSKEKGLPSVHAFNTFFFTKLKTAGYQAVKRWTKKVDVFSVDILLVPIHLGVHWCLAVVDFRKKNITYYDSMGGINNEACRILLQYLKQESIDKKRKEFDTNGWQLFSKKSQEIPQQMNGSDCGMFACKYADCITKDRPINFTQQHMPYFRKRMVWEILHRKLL

[6] = biological target: T3, RNA-binding protein pos-1 (Caenorhabditis elegans, UniProt G5EF15); assay: inhibitors of POS-1/mex-3 RNA binding, dose response, biochemical, fluorescence polarization (AID 1964);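 also: purified POS-1 fused to maltose binding protein made in E. coli; potency of compounds blocking POS-1 binding to fluorescent RNA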
T3 sequence (G5EF15 whole entry): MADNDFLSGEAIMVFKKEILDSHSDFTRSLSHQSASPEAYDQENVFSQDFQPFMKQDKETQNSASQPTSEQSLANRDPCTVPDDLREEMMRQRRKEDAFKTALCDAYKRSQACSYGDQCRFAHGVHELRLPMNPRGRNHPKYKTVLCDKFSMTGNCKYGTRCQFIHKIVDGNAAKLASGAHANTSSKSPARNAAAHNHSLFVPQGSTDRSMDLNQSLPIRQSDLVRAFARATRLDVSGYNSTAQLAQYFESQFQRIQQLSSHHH

[7] = biological target: T4, Zinc finger protein mex-5 (Caenorhabditis elegans, UniProt Q9XUB2); assay: MEX-5/TCR-2 RNA interaction inhibitors, dose response, biochemical, C. elegans, fluorescence polarization (AID 1960)
T4 sequence (Q9XUB2 whole entry): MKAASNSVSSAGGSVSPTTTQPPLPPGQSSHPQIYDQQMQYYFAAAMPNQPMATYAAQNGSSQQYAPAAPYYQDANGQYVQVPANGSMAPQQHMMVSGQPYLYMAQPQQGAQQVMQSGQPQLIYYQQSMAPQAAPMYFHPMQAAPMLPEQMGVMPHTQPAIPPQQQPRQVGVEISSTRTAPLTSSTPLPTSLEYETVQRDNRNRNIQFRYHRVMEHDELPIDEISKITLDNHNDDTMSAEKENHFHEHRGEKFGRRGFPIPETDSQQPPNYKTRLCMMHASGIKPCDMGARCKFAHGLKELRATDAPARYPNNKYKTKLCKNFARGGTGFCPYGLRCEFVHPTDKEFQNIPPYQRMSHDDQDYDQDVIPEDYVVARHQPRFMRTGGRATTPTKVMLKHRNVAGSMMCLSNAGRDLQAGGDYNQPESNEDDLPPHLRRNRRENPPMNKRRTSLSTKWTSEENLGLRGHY

[8] = Luminescence Cell-Based Dose Confirmation HTS to Identify Activators of 5'UTR Stem-Loop Driven Alpha-Synuclein mRNA Translation in H4 Neuroglioblastoma Cells. [Related pubchem assays: 1829 (Project Summary), 1814 (Primary HTS)]; assay type: functional
[9] = Counterscreen for inhibitors of Trypanosoma brucei methionyl tRNA synthetase (MetRS): Luminescence-based cell-based high throughput dose response assay to identify compounds that are cytotoxic to Jurkat human T lymphocyte cells.; assay type: functional
[10] = biological target: T5, Methionyl-tRNA synthetase, putative (Trypanosoma brucei brucei, UniProt Q38C91); assay type: functional, Trypanosoma brucei brucei strain 927/4 GUTat10.1
T5 sequence (Q38C91 whole entry): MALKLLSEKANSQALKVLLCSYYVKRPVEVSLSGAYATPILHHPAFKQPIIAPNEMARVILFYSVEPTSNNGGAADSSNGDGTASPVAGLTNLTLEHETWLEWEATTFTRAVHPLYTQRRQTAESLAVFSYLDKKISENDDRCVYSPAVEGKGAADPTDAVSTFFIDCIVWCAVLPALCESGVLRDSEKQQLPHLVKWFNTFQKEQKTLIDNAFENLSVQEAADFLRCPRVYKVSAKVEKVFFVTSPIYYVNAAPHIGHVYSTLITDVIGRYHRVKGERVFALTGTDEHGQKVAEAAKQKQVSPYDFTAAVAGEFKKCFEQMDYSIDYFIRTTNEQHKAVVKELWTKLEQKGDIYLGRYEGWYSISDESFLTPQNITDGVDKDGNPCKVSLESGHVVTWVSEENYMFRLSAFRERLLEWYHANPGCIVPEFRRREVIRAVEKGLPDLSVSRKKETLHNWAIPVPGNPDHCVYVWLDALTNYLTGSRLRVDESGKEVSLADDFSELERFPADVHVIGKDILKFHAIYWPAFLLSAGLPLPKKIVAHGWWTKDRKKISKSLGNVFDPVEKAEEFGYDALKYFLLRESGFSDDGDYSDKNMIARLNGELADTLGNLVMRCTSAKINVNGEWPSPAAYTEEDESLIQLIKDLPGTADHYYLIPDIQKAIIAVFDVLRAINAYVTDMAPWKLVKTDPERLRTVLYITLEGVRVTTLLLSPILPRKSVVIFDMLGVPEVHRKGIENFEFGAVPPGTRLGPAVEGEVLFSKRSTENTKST

[11] = biological target: T5, Methionyl-tRNA synthetase, putative; assay type: functional, Trypanosoma brucei brucei strain 927/4 GUTat10.1; remark: listed apart in the source
Beta-lactamase [12] = biological target: Beta-lactamase (Salmonella choleraesuis (strain SC-B67), UniProt Q5J463); assay: Epi-absorbance-based counterscreen for selective VIM-2 inhibitors: dose response biochemical high throughput screening assay to identify inhibitors of TEM-1 serine-beta-lactamase.
Beta-lactamase [13] = biological target: T6, Beta-lactamase (Pseudomonas aeruginosa, UniProt Q79MP6); assay: IMP-1 metallo-beta-lactamase inhibitors, dose response, selectivity assay for VIM-2 inhibitor project, biochemical, epi-absorbance (AID 1920)
Beta-lactamase [14] = biological target: T6, Beta-lactamase; assay: […] counterscreen for selective VIM-2 inhibitors: dose response biochemical high throughput screening assay to identify inhibitors of IMP-1 metallo-beta-lactamase.
cells [15] = assay type: functional, cell-based
[16] = biological target: T7, Trace amine-associated receptor 1 (Homo sapiens, UniProt Q96RJ0); assay: Counterscreen for agonists of the human trace amine associated receptor 1 (hTAAR1): Fluorescence-based cell-based high throughput dose response assay to identify hTAAR1 agonist that also desensitize TAAR1 receptor response.; assay type: functional
T7 sequence (Q96RJ0 whole entry): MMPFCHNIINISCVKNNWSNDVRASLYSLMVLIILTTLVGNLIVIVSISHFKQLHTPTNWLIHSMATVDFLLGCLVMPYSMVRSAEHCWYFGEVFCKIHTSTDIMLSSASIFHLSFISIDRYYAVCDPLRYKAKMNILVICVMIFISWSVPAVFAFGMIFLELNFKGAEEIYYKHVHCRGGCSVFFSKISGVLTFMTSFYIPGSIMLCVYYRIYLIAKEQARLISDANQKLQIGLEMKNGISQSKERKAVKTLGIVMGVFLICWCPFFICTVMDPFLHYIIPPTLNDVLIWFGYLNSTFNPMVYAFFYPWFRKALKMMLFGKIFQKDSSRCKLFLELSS

cells [17] = assay type: functional, cell-based; remark: listed apart in the source
[18] = biological target: T7, Trace amine-associated receptor 1; assay: Fluorescence-based cell-based high throughput dose response assay to identify agonists of the human trace amine associated receptor 1 (TAAR1).; assay type: functional
[19] = biological target: Arf-GAP with SH3 domain, ANK repeat and PH domain-containing protein 1 (Homo sapiens, UniProt Q9ULH1); assay type: functional;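 also: biochemical fluorescence polarization dose–response screen measuring inhibition of ASAP1; ASAP1 GAP domain stimulating GTP hydrolysis by truncated human ARF1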
[20] = LMP1-driven NF-kB reporter inhibition, dose response, cell-based, luciferase reporter, luminescence, dry powder, set 2 (AID 624376); assay type: functional
[21] = HEK293 cell cytotoxicity, dose response, cytotoxicity control, cherry-picks, set 5 (AID 1053117); assay type: functional, cell-based

CC1CCCN(C(=O)CSc2cnc3ccccc3n2)C1 (stereo unspecified)
IC50 (Major prion protein): 5.87 µM (active)
EC50 (H4): 11 µM (active)
EC50 [1]: 5.25 µM (active)
IC50 (cells [2]): > 138 µM (inactive)

COc1ccc2c(C)cc(SCc3c(C)noc3C)nc2c1
IC50 (Major prion protein): 4.31 µM (active)
EC50 [3]: > 53 µM (inactive)
IC50 [4]: > 47.1 µM (inactive)
IC50 (cells [2]): > 138 µM (inactive)

COc1ccc(P2(=O)Nc3ccccc3N2)cc1
IC50 [5]: 74.3 µM (inactive)
EC50 (H4): 7.44 µM (active)
EC50 [6]: > 300 µM (not active)
EC50 [7]: 103 µM (active)
EC50 [1]: 10.5 µM (active)
EC50 [8]: > 120 µM (not active)

Cc1ccc(NC(=O)C(C)c2cccc(C(=O)c3ccccc3)c2)cc1 (stereo unspecified)
IC50 [9]: 83.3 µM (inactive)
IC50 [10]: 3.15 µM (active)
IC50 [11]: 7.61 µM (active)

O=C(CSc1nnc(NC(=O)c2c(F)cccc2F)s1)NCc1ccccc1
IC50 (Beta-lactamase [12]): > 59.6 µM (inactive)
IC50 (Beta-lactamase [13]): > 59.6 µM (inactive)
IC50 (Beta-lactamase [14]): > 59.6 µM (inactive)

O=C(O)C1C2C=CC(C2)C1C(=O)NCCc1ccccc1 (stereo unspecified)
IC50 (cells [15]): > 29.9 µM (inactive)
IC50 [16]: 5.26 µM (active)
EC50 (cells [17]): > 29.9 µM (inactive)
EC50 [18]: 140 nM (active)

COc1ccc(/C=C2\C(=O)NC(=O)c3ccccc32)cc1OC
IC50 [19]: 165 µM (inactive)

OC(c1cc(F)cc(Cl)c1)c1nc(-c2cccc(C(F)(F)F)c2)c[nH]1 (stereo unspecified)
IC50 [9]: 42.2 µM (inactive)
IC50 [10]: 17.5 µM (inactive)
IC50 [11]: 27.7 µM (inactive)

O=C(N[C@@H](Cc1cccnc1)C(=O)N1CCC[C@H]1C(=O)NCCc1ccccc1Cl)c1ccccc1
IC50 (cells [15]): > 29.9 µM (inactive)
IC50 [16]: 5.16 µM (active)
EC50 (cells [17]): > 29.9 µM (inactive)
EC50 [18]: 4300 nM (active)

Cc1noc(C)c1S(=O)(=O)Nc1ccc2c(c1)C(=O)N([C@@H](C)CO)C[C@@H](C)[C@H](CN(C)Cc1ccc(C(F)(F)F)cc1)OCCCC[C@@H](C)O2
AbsAC35 [20]: 151.1 µM

C[C@H]1CN([C@@H](C)CO)C(=O)c2c(c3ccccc3n2C)-c2ccccc2CO[C@@H]1CN(C)C(=O)Nc1ccc(F)cc1
AbsAC35 [20]: 78.41 µM

C[C@H]1CN([C@@H](C)CO)C(=O)c2cc(-c3ccccc3)cnc2O[C@H]1CN(C)C(=O)c1cccc(F)c1
AC50 [21]: > 52 µM (inactive)

Cc1ccc(/C=N/NC(=O)CCCOc2ccc(Cl)cc2Cl)cc1[N+](=O)[O-]
IC50 [19]: 26.1 µM (inactive)
